ChEMBL document CHEMBL3132858, “6-Alkyl-, 6-aryl- or 6-hetaryl-7-deazapurine ribonucleosides as inhibitors of human or MTB adenosine kinase and potential antimycobacterial agents” (Medchemcomm, 2013)
Active and inactive are the calls of the source. The rule behind the calls is not given here.

Legend:
Adenosine kinase [1] = biological target: T1, Adenosine kinase (Homo sapiens, UniProt P55263); experiment: Inhibition of human ADK using [3H]-adenosine by scintillation counting method
Target sequence in this assay (P55263 whole entry): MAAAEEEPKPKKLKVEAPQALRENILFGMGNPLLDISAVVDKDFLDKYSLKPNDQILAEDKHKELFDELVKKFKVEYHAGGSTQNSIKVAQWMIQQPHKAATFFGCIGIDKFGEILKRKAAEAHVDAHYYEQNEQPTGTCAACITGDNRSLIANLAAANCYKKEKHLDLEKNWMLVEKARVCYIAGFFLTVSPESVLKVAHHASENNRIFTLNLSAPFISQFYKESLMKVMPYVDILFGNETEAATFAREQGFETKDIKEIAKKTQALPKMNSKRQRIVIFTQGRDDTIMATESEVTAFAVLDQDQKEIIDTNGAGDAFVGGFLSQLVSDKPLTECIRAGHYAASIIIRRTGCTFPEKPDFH

[2] = Cytotoxicity against human BJ cells after 72 hrs by MTT assay; format: cell-based
Adenosine kinase [3] = biological target: Adenosine kinase (Mycobacterium tuberculosis (strain CDC 1551 / Oshkosh), UniProt P9WID4); experiment: Inhibition of Mycobacterium tuberculosis ADK using [3H]-adenosine by scintillation counting method
[4] = biological target: Adenosine kinase (Mycobacterium tuberculosis (strain CDC 1551 / Oshkosh)) (UniProt P9WID4); experiment: Activity of Mycobacterium tuberculosis ADK assessed as compound conversion to 5'-phosphate form incubated at 37 degC for 20 mins by HPLC method
[5] = Cytotoxicity against human MRC5 cells after 72 hrs by MTT assay; format: cell-based
Adenosine kinase [6] = biological target: T1, Adenosine kinase; experiment: Activity of human ADK assessed as compound conversion to 5'-phosphate form incubated at 37 degC for 20 mins by HPLC method; parameters: concentration or dose not given beside the values
Target sequence in this assay (P55263 2-362 limits assumed): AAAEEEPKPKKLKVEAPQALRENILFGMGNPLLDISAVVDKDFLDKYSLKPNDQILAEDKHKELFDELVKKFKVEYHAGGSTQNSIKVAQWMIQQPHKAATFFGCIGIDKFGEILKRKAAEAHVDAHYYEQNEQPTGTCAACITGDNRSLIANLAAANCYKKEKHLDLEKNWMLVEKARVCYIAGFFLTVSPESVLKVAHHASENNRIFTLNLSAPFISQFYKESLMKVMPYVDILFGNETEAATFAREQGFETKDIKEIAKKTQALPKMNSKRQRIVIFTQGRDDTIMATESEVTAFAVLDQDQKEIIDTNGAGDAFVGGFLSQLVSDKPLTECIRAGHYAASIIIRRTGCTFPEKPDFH

Chain of Adenosine kinase (Mycobacterium tuberculosis (strain CDC 1551 / Oshkosh)) (P9WID4 2-324 limits assumed): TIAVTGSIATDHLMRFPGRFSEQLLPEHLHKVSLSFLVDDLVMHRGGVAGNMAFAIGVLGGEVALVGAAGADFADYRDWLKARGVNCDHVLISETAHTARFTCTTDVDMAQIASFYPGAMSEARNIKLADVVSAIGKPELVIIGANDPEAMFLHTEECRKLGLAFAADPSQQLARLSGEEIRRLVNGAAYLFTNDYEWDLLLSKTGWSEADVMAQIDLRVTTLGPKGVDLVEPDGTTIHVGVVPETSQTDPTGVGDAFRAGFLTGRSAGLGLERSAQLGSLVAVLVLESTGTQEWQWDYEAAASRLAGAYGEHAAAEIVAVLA
Chain of Adenosine kinase (Mycobacterium tuberculosis (strain CDC 1551 / Oshkosh), UniProt P9WID4) (P9WID4 whole entry): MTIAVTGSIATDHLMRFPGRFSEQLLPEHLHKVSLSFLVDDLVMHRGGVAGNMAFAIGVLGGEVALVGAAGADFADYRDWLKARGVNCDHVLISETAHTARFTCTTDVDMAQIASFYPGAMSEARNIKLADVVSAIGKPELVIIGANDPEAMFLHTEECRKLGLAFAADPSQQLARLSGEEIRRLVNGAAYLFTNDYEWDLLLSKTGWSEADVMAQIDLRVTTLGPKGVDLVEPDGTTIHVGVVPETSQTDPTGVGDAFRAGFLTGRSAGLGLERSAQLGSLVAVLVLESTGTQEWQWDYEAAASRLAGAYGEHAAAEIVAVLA

| SMILES | IC50 (Adenosine kinase [1]) | CC50 at 72 h [2] | IC50 (Adenosine kinase [3]) | Activity [4] | CC50 at 72 h [5] | Activity (Adenosine kinase [6]) |
| --- | --- | --- | --- | --- | --- | --- |
| OC[C@H]1O[C@@H](n2ccc3c(-c4cc5ccccc5o4)ncnc32)[C@H](O)[C@@H]1O | 2.1 µM | > 50 µM | 0.0145 µM | inactive | > 50 µM | – |
| OC[C@H]1O[C@@H](n2cc(F)c3c(-c4ccccc4)ncnc32)[C@H](O)[C@@H]1O | > 10 µM | > 50 µM | 0.2 µM | inactive | > 50 µM | 17% |
| CCCCCCCCCCCCCCCCCCOP(=O)(O)OC[C@H]1O[C@@H](n2ccc3c(-c4ccco4)ncnc32)[C@H](O)[C@@H]1O | 2.4 µM | > 50 µM | > 20 µM | inactive | 45.3 µM | – |
| OC[C@H]1O[C@@H](n2ccc3c(-c4ccn[nH]4)ncnc32)[C@H](O)[C@@H]1O | > 20 µM | 43.9 µM | 0.059 µM | inactive | 1.16 µM | 31% |
| OC[C@H]1O[C@@H](n2cc(F)c3c(-c4ccsc4)ncnc32)[C@H](O)[C@@H]1O | > 10 µM | 0.62 µM | 0.063 µM | inactive | 50 µM | 51% |
| OC[C@H]1O[C@@H](n2cc(F)c3c(-c4cccs4)ncnc32)[C@H](O)[C@@H]1O | 1.1 µM | 0.17 µM | 0.035 µM | inactive | 47.2 µM | 52% |
| Cc1ncnc2c1ccn2[C@@H]1O[C@H](CO)[C@@H](O)[C@H]1O | > 10 µM | 0.098 µM | 8.8 µM | inactive | 0.081 µM | 54% |
| OCc1ncnc2c1ccn2[C@@H]1O[C@H](CO)[C@@H](O)[C@H]1O | > 10 µM | 0.34 µM | > 5 µM | inactive | 0.28 µM | 26% |
| OC[C@H]1O[C@@H](n2cc(Cl)c3c(-c4ccccc4)ncnc32)[C@H](O)[C@@H]1O | > 10 µM | 44.5 µM | 0.22 µM | inactive | > 50 µM | 29% |
| OC[C@H]1O[C@@H](n2ccc3c(-c4ccc[se]4)ncnc32)[C@H](O)[C@@H]1O | > 10 µM | 1.52 µM | 0.03 µM | inactive | > 50 µM | 43% |
| OC[C@H]1O[C@@H](n2ccc3c(Cc4ccccc4)ncnc32)[C@H](O)[C@@H]1O | > 20 µM | 36.9 µM | > 20 µM | inactive | > 50 µM | – |
| OC[C@H]1O[C@@H](n2ccc3c(-c4cccnc4)ncnc32)[C@H](O)[C@@H]1O | > 10 µM | 50 µM | 1 µM | inactive | > 50 µM | – |
| OC[C@H]1O[C@@H](n2cc(F)c3c(-c4nccs4)ncnc32)[C@H](O)[C@@H]1O | > 20 µM | 0.63 µM | 0.028 µM | inactive | > 50 µM | 75% |
| OC[C@H]1O[C@@H](n2ccc3c(-c4cc[nH]c4)ncnc32)[C@H](O)[C@@H]1O | > 10 µM | 1.87 µM | 0.3 µM | inactive | 40.1 µM | 70% |
| CCc1ncnc2c1ccn2[C@@H]1O[C@H](CO)[C@@H](O)[C@H]1O | > 20 µM | 2.7 µM | 8.1 µM | inactive | 50 µM | – |
| OC[C@H]1O[C@@H](n2cc(F)c3c(-c4cc[nH]c4)ncnc32)[C@H](O)[C@@H]1O | > 10 µM | 2.02 µM | 0.4 µM | inactive | 48.9 µM | 97% |
| OC[C@H]1O[C@@H](n2ccc3c(-c4ccc[nH]4)ncnc32)[C@H](O)[C@@H]1O | > 10 µM | > 50 µM | 0.073 µM | inactive | > 50 µM | 40% |
| OC[C@H]1O[C@@H](n2ccc3c(-c4cc5ccccc5s4)ncnc32)[C@H](O)[C@@H]1O | 0.3 µM | > 50 µM | 0.0075 µM | inactive | > 50 µM | – |
| OC[C@H]1O[C@@H](n2ccc3c(-c4cccc5c4sc4ccccc45)ncnc32)[C@H](O)[C@@H]1O | 15.4 µM | > 50 µM | 0.15 µM | inactive | 43.8 µM | – |
| OC[C@H]1O[C@@H](n2ccc3c(-c4cc5ccccc5[nH]4)ncnc32)[C@H](O)[C@@H]1O | 8.35 µM | > 50 µM | 0.04 µM | inactive | > 50 µM | – |
